One data set concerns study subjects. As to the kind of experiment: Treatment of study subjects with peroral daily doses according to intermittent administration schemes. It counts as in vivo, human. The following applies: same doses and administration schemes; 50-150 mg perorally daily as a single dose. Here is the method: (§1) Study subjects are treated with compound (76) with the following doses according to the following administration schemes: • in a 3 month trial, 75 mg or 150 mg compound (76) administered perorally daily as a single dose on day 2-7 of the menstrual cycle • in a 3 months trial, 75 mg, 100 mg or 150 mg compound (76) administered perorally daily as a single dose on day 2-7 of the menstrual cycle followed by a 3 months treatment-free period • in a 6 months trial, 75 mg or 150 mg compound (76) administered perorally daily as a single dose • 50 mg or 150 mg per compound (76) administered daily as a single dose over 42 days (6 weeks)
as §1, with “(68)” for “(76)”
as §1, with “36” for “(76)”
as §1, with “37” for “(76)”
as §1, with “52” for “(76)”
as §1, with “144” for “(76)”, “weeks) […]” for “weeks)”

For data set [1] the following is noted: in vivo; cited from earlier work.
Another data set addresses LHRH receptor (Homo sapiens, UniProt P30968). As to conditions: Cho N et al., J. Med. Chem. 1998; cited from earlier work.

Sequence of LHRH receptor (P30968 whole entry): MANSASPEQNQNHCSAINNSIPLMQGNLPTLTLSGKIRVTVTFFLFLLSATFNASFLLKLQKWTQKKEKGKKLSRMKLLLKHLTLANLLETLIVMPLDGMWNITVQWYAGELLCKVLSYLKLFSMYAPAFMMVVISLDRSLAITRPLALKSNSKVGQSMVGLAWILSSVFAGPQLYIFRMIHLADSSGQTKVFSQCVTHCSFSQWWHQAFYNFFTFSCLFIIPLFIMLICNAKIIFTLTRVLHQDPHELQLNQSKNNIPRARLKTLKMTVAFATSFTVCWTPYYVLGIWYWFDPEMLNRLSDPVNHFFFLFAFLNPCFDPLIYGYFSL

On to `CCC(C)[C@H](NC(=O)Cc1ccccc1F)C(=O)N[C@]1(C(=O)N[C@H](C(=O)NCN2CCOCC2)C(C)CC)CCc2[nH]c3c(C(F)(F)F)cccc3c2C1` (stereo partly drawn) [Compound 36, (R)-3-{(S)-2-[2-(2-Fluoro-phenyl)-acetylamino]-3-methyl-pentanoylamino}-8-trifluoromethyl-2,3,4,9-tetrahydro-1H-carbazole-3-carboxylic acid {(S)-2-methyl-1-[(morpholin-4-ylmethyl)-carbamoyl]-butyl}-amide], for which, in the data set on study subjects, the “prevention of chemical (hormonal) castration” value was “successfully prevented”.
On the same count and under the same terms, the entry for `CCC(C)[C@H](NC(=O)Cc1ccccc1F)C(=O)N[C@]1(C(=O)N[C@H](C(=S)NCN2CCOCC2)C(C)CC)CCc2[nH]c3c(C(F)(F)F)cccc3c2C1` (stereo partly drawn) [Compound 37, (R)-3-{(S)-2-[2-(2-Fluoro-phenyl)-acetylamino]-3-methyl-pentanoylamino}-8-trifluoromethyl-2,3,4,9-tetrahydro-1H-carbazole-3-carboxylic acid {(S)-2-methyl-1-[(morpholin-4-ylmethyl)-thiocarbamoyl]-butyl}-amide] is “successfully prevented”; for `CCC(C)[C@H](NC(=O)Cc1ccccc1F)C(=O)N[C@]1(C(=O)N[C@H](C(=S)NCC2CCOCC2)C(C)CC)CCc2[nH]c3c(C(F)(F)F)cccc3c2C1` (stereo partly drawn) [Compound 52, (R)-3-{(S)-2-[2-(2-Fluoro-phenyl)-acetylamino]-3-methyl-pentanoylamino}-8-trifluoromethyl-2,3,4,9-tetrahydro-1H-carbazole-3-carboxylic acid {(S)-2-methyl-1-[(tetrahydro-pyran-4-ylmethyl)-thiocarbamoyl]-butyl}-amide] it is “successfully prevented”; for `CCC(C)[C@H](NC(=O)Cc1ccccc1F)C(=O)N[C@]1(C(=O)N[C@H](C(=O)NNc2ccccc2)C(C)CC)CCc2[nH]c3c(C(F)(F)F)cccc3c2C1` (stereo partly drawn) [Compound 144, (R)-3-{(S)-2-[2-(2-Fluoro-phenyl)-acetylamino]-3-methyl-pentanoylamino}-8-trifluoromethyl-2,3,4,9-tetrahydro-1H-carbazole-3-carboxylic acid [(S)-2-methyl-1-(N′-phenyl-hydrazinocarbonyl)-butyl]-amide] it is “successfully prevented”.
Turning to `CC(C)OC(=O)c1cn(Cc2c(F)cccc2F)c2sc(-c3ccc(NC(=O)C(C)C)cc3)c(CN(C)Cc3ccccc3)c2c1=O` [T-98475], the bioavailability result in data set [1] was “low”. Also, at LHRH receptor, the receptor affinity entry is given as “high”.
Consider `CCC(C)[C@H](NC(=O)Cc1ccccc1F)C(=O)N[C@]1(C(=O)N[C@H](C(N)=S)C(C)CC)CCc2[nH]c3c(Cl)cc(F)cc3c2C1` (some centres unmarked) [compound (68)], for which the “prevention of chemical (hormonal) castration” value with study subjects was “successfully prevented”.
Still for that read-out and setting: under `CCC(C)[C@H](NC(=O)Cc1ccccc1F)C(=O)N[C@]1(C(=O)N[C@H](C(N)=S)C(C)CC)CCc2[nH]c3c(C(F)(F)F)cccc3c2C1` (stereo partly drawn) [compound (76), (R)-3-{(S)-2-[2-(2-fluorophenyl)acetylamino]-3-methylpentanoylamino}-8-trifluoro-methyl-2,3,4,9-tetrahydro-1H-carbazole-3-carboxylic acid ((S)-2-methyl-1-thio-carbamoylbutyl)amide] stands “successfully prevented”.

The values are drawn from patent US8273716B2, “Use of LHRH antagonists for intermittent treatments” (Spectrum Pharmaceuticals, Inc., priority 2008, dated 2012).
